Test results taken from publication PMC5306062, “Pharmacology and toxicology of the novel investigational agent Cantrixil (TRX-E-002-1)” (Cancer Chemotherapy and Pharmacology, 2016).

Legend:
[1] = tested on: hERG single mutant (hERG-SM); assay: Surface expression of hERG single mutant; assay type: cell-based, human; conditions: 0.1-10 μM
Procedure: However, at concentrations of 0.1-10 μM, the drug increased surface expression of the hERG single mutant (hERG-SM), identifying it as a potential blocker of hERG channel activity. […] Potential cardiovascular responses to intraperitoneal injection of TRX-E-002-1 were investigated in a GLP-compliant telemetry study in beagle dogs. Four male dogs received vehicle (20% SBECD) or TRX-E-002-1 (1, 10 or 30 mg/kg) on four separate occasions in a Latin Square design. Blood pressure, heart rate, ECG parameters and body temperatures were continuously recorded from 30 min before dosing until at least 24 h after each dose.

[2] = tested on: caspases 3/7 and 9; assay: Caspase activity in OCSC2 cells; assay type: cell-based, human
Procedure: The role of caspases and intracellular signalling pathways in the anticancer activity of TRX-E-002-1 was investigated in OCSC2 ovarian cancer stem cells. […] TRX-E-002-1 also modulated phosphorylation of intracellular signalling molecules, with decreased levels of pERK (phosphorylated extracellular signal-regulated kinase) and increased levels of phosphorylated c-Jun (p–c-Jun). Activated p–c-Jun levels increased progressively over the 24-h incubation period in response to both concentrations of TRX-E-002-1 tested. […] Increased p–c-Jun and decreased pERK levels were observed following incubation of OCSC2 cells after only 2-h’ exposure, indicating these changes are one of the earliest effects of TRX-E-002-1 treatment.

[3] = tested on: ovarian, prostate and lung cancer cells; assay: Broad cytotoxic activity; assay type: cell-based; conditions: Homo sapiens, summary over ovarian
Excerpt: Activity in pancreatic and colorectal cancer cells and glioblastoma cells was more variable (Table 1).

[4] = tested on: wild-type human ether-à-go-go-related gene (hERG); assay: hERG trafficking, surface expression of wild-type hERG; assay type: cell-based
[5] = Second dog pharmacokinetic study, 10 mg/kg intraperitoneal, four dogs; assay type: in vivo, beagle dogs; conditions: 10 mg/kg i.p.
Procedure: In beagle dogs, plasma concentrations of unconjugated TRX-E-002-1 at early time points (1–4 h’ post-dose) were 76–93% of the total levels (parent + glucuronide). At 8 h, the plasma concentrations of the glucuronide metabolites were similar to those of parent drug. By 24 h’ post-dose, the concentrations of TRX-E-002-1-glucuronide in plasma and gastrointestinal tissues (except colon) were 2–12 times higher than those of the parent drug. The increased levels of TRX-E-0021-glucuronide relative to those of parent drug at 24 h post-dose may reflect slower elimination of the glucuronide metabolites.

[6] = Dog GLP 28-day repeat-dose study, intraperitoneal three times per week; assay type: in vivo, beagle dogs
Procedure: For the dog GLP 28-day repeat-dose study, beagle dogs received intraperitoneal injections of vehicle (3:20 dilution of 20% SBECD in 0.9% saline) or Cantrixil (1, 10 or 30 mg/kg) three times per week for 4 weeks via an implanted catheter. Blood samples were collected from all dogs at 0.25, 0.5, 1, 2, 4 and 24 h after dosing on Days 1 and 26. […] Mean C max and AUClast values were similar in males and females and were greater than proportional to dose. […] Corresponding mean AUClast values on Day 1 were 71.4/80.5, 2810/2260 and 10,500/11,000 ng h/mL, respectively, for males/females.
Treatment-related clinical signs observed in males and females at 10 or 30 mg/kg included emesis, and soft or liquid faeces. […] Food consumption was affected to a lesser extent in females at 30 mg/kg and was not associated with discernible effect on body weight gain.
Similar changes were apparent but less severe in high-dose males and females after the 2-week recovery period. Coagulation parameters, serum chemistry, urinalysis and bone marrow examinations were unremarkable.
Red discoloration in the caecum was also observed in all male dogs and one female dog in the 30 mg/kg group. […] No treatment-related macroscopic abnormalities were observed after the recovery period.
In summary, the main toxicity findings following intraperitoneal administration of TRX-E-002-1 30 mg/kg in SBECD to beagle dogs three times per week for 4 weeks were emesis, soft and/or liquid faeces, leukocytosis with elevated neutrophil and monocyte counts, red discoloration in the caecum and degenerative changes in male reproductive organs. Some of these effects were also observed at the mid-dose of 10 mg/kg, while 1 mg/kg was a clear no-effect dose. […] No differences between sexes were apparent in toxic effects or systemic exposure, and the NOAEL for combined sexes was 10 mg/kg. The 10 mg/kg dose was also considered the highest non-severely toxic dose (HNSTD), and mean plasma AUClast for combined sexes at this dose was 2310 ng h/mL on Day 26.

[7] = Dog 14-day pilot toxicity study with toxicokinetics, intraperitoneal; conditions: both, beagle, dog, plasma
Procedure: For the dog 14-day pilot study, male and female beagle dogs were dosed once daily with intraperitoneal injections of vehicle (1:2 dilutions of 20% SBECD in 0.9% saline) or Cantrixil (10, 30 or 100 mg/kg) for 14 days. The doses were administered via an implanted catheter.

[8] = tested on: CYP1A2; assay: CYP induction in human hepatocytes; assay type: in vitro ADME
Excerpt: Potential induction of human drug-metabolizing cytochrome P450 enzymes by TRX-E-002-1 was also investigated in human hepatocytes in vitro (VPT3079/2015). No evidence of CYP1A2 induction was observed.

[9] = Excretion study in rats, single intraperitoneal injection; assay type: in vivo, female Sprague–Dawley rats; conditions: 100 mg/kg i.p.
Procedure: Excretion of TRX-E-002-1 was investigated in female Sprague–Dawley rats that received a single intraperitoneal injection of TRX-E-002-1 100 mg/kg in 20% SBECD. High levels of parent drug were measured in urine up to 24 h after dosing and in faeces up to 48 h after dosing. The glucuronide conjugate, measured as the increase in TRX-E-002-1 following treatment of the samples with beta-glucuronidase, was found at levels similar to those of parent drug in faeces (rectal contents) up to 2 h after dosing, but was barely detectable in urine. Total amounts of parent drug and glucuronide excreted in faeces and urine were not calculated, so that the relative contributions of renal and biliary excretion pathways cannot be evaluated.

[10] = tested on: mouse lymphoma L5178Y cells; assay: In vitro mammalian cell mutation assay, thymidine kinase locus; conditions: 3 h with and without S9, 24 h without S9
Procedure: Genotoxicity testing of TRX-E-002-1 was performed in an ICH-compliant test battery (see ICH Guideline S2A), comprising an in vitro bacterial reverse mutation test, an in vitro mammalian cell mutation assay and an in vivo rodent bone marrow micronucleus assay. The assays were performed in compliance with GLP regulations.
The in vitro mammalian cell mutation assay utilised the forward mutation system at the thymidine kinase locus of the mouse lymphoma L5178Y cells using a microtitre cloning technique. TRX-E-002-1 was tested in three experimental conditions: 3-h incubation at 37 °C with and without metabolic activation system (Aroclor-induced rat liver S9 mix), and a 24-h incubation without metabolic activation (i.e. continuous treatment).

**Q.** Which “surface expression of hERG-SM” value [1] does the source give for `COc1cc([C@@H]2COc3c(ccc(O)c3C)[C@@H]2c2ccc(O)cc2)cc(OC)c1O` [TRX-E-002-1, (+) cis-4-(para-hydroxyphenyl)-7,4′-dihydroxy-3′,5′-dimethoxy-8-methylisoflavan] here?
**A.** The value was “increased”.

**Q.** What about the “activity of caspases 3/7 and 9” value [2] of the same compound?
**A.** The value was “markedly increased”.

**Q.** What about the IC50 [3] of the same compound?
**A.** The IC50 was ≤ 100 nM.

**Q.** What about the “surface expression of wild-type hERG” value [4] of the same compound?
**A.** The value was “does not affect”.

**Q.** And the “TRX-E-002-1 levels by 72 h” value [5]?
**A.** The value was “close to or below the limit of quantification”.

**Q.** What about the Kp at 24 h ([5]; beagle, dog, gastrointestinal tissues, ip, 24 h after dosing, read-out: concentrations in gastrointestinal tissues relative to plasma) of the same compound?
**A.** Its Kp at 24 h is ≥ 30.

**Q.** And the “accumulation with three times weekly dosing” value ([6]; Day 26 vs Day 1)?
**A.** The value was “no accumulation”.

**Q.** And the NOAEL at 4 weeks ([6]; both sexes, beagle, dog, in vivo, intraperitoneal, combined sexes)?
**A.** Its NOAEL at 4 weeks is 10 mg/kg.

**Q.** What about the AUC(0-t) ([6]; both sexes, beagle, dog, plasma, intraperitoneal, combined sexes, 10 mg/kg, Day 26, read-out: mean plasma AUClast) of the same compound?
**A.** Its AUC(0-t) is 2310 ng·h/mL.

**Q.** What about the clear no-effect dose ([6]; dog, in vivo) of the same compound?
**A.** Its clear no-effect dose is 1 mg/kg.

**Q.** And the “highest non-severely toxic dose (HNSTD)” value ([6]; dog, in vivo)?
**A.** Its value is 10 mg/kg.

**Q.** And the NOAEL at 4 weeks ([6]; female, beagle, dog, in vivo, intraperitoneal, females)?
**A.** Its NOAEL at 4 weeks is 30 mg/kg.

**Q.** And the NOAEL at 4 weeks ([6]; male, beagle, dog, in vivo, intraperitoneal, males)?
**A.** The NOAEL at 4 weeks was 10 mg/kg.

**Q.** What about the half-life ([7]; intraperitoneal) of the same compound?
**A.** The half-life was 120 to 162 min.

**Q.** What about the Tmax ([7]; ip, 100 mg/kg) of the same compound?
**A.** Its Tmax is 0.5 to 2 h.

**Q.** What about the CYP1A2 induction [8] of the same compound?
**A.** The CYP1A2 induction was “No evidence”.

**Q.** And the “parent drug in urine” value ([9]; up to 24 h after dosing)?
**A.** The value was “High levels”.

**Q.** And the “parent drug in faeces” value ([9]; up to 48 h after dosing)?
**A.** Its value is “High levels”.

**Q.** What about the “mutant frequencies compared with control values” [10] of the same compound?
**A.** The value was “did not show statistically significant differences”.
